Test results: US7589121B2, “Use of furan alkyls for preparing a drug for treating obesity and cosmetically treating overweight” (priority 2004, dated 2009)

Key:
CYP7A1 = experiment: Analysis of mRNAs in the liver (Q-RT-PCR): CYP7A1; type: in vivo, mice; conditions: TZD
Description: (§1) In the liver, the mRNA expressions of 8 genes were determined in 5 mice of each group using real-time Q-RT-PCR analysis.

[1] = test system: ME, FAS, ACC (fatty acid synthesis); experiment: Analysis of mRNAs in the liver (Q-RT-PCR): ME, FAS, ACC; type: in vivo, mice; conditions: TZD
Description: as §1

PEPCK (target PPARγ) = experiment: Analysis of mRNAs in the liver (Q-RT-PCR): PEPCK; type: in vivo, mice; conditions: TZD
Description: as §1

[2] = test system: PGC-1 (mitochondria biogenesis); experiment: Analysis of mRNAs in the muscles and BAT: PGC-1; type: in vivo, mice; conditions: TZD
Description: In the brown adipose tissue (BAT) and in the muscles, the mRNA expression of 3 genes was determined in 5 mice of each group by real-time Q-RTR-PCR analysis.

[3] = test system: GSH-S-transferase (target PXR); experiment: Analysis of mRNAs in the liver (Q-RT-PCR): GSH-S-transferase; type: in vivo, mice; conditions: TZD
Description: as §1

ACO (target PPARα) = experiment: Analysis of mRNAs in the liver (Q-RT-PCR): ACO; type: in vivo, mice; conditions: TZD
Description: as §1

[4] = test system: mice fattened on a high fat/high sucrose diet (HF/HS); experiment: Weight gain / weight of mice on HF/HS diet; type: in vivo; conditions: curative group; TZD added to HF/HS food
Description: We used adult mice (aged 6 weeks) of masculine gender fattened on a high fat/high sucrose diet (HF/HS). Feeding with the HF/HS diet began on mice aged 6 weeks and continued throughout the period of the study. The study was conducted along 2 axes: • prevention: the product was administered as soon as feeding began with the HF/HS diet; • management (curative): the product was administered 12 weeks after the start of the HF/HS diet. Total treatment time (preventive and curative): 23 weeks.
Each experimental group comprised 10 mice.

`CN(CCOc1ccc(CC2SC(=O)NC2=O)cc1)c1ccccn1` (stereo not shown) [TZD, Rosiglitazone] was tested, and the “CYP7A1 (conversion oxysterol into biliary acids) mRNA, liver” value (CYP7A1) was “⇑⇑”, the “ME, FAS, ACC (fatty acid synthesis) mRNA, liver” value [1] was “⇑⇑” and the “PEPCK (target PPARγ) mRNA, liver” value (PEPCK (target PPARγ)) was “⇑”. For the same compound, the “PGC-1 (mitochondria biogenesis) mRNA, MUSCLE/BAT” value [2] was “⇑ (muscle)”, the “GSH-S-transferase (target PXR) mRNA, liver” value [3] was “⇑” and the “ACO (target PPARα) mRNA, liver” value (ACO (target PPARα)) was “⇑”. For the same compound, the “weight loss of overweight mice” value [4] was “did not cause the overweight mice to lose weight”.
